Test results taken from ChEMBL document CHEMBL5614431, “Discovery of 1,3,4-oxadiazoles with slow-action activity against Plasmodium falciparum malaria parasites” (Eur J Med Chem, 2024).

Legend:
[1] = system: Plasmodium falciparum; experiment: Antimalarial activity against synchronous ring stage Plasmodium falciparum 3D7 infected in human Erythrocyte assessed as inhibition of parasite growth incubated for 48 hrs by [3H]-hypoxanthine incorporation assay; assay type: functional, organism-based; details: 3D7, Erythrocyte
[2] = system: Plasmodium falciparum; experiment: Antimalarial activity against synchronous ring stage Plasmodium falciparum 3D7 infected in human Erythrocyte assessed as inhibition of parasite growth incubated for 96 hrs by [3H]-hypoxanthine incorporation assay; assay type: functional, organism-based; details: 3D7, Erythrocyte
[3] = Selectivity ratio of IC50 for antimalarial activity against synchronous ring stage Plasmodium falciparum 3D7 infected in human Erythrocyte assessed as inhibition of parasite growth incubated for 48 hrs by [3H]-hypoxanthine incorporation assay to IC50 for antimalarial activity against synchronous ring stage Plasmodium falciparum 3D7 infected in human Erythrocyte assessed as inhibition of parasite growth incubated for 48 hrs by [3H]-hypoxanthine incorporation assay; assay type: functional
[4] = Cytotoxicity against human NFF cells assessed as reduction in cell viability incubated for 72 hrs by SRB assay; assay type: toxicity, cell-based
[5] = Selectivity index, ratio of IC50 for cytotoxicity against human NFF cells to IC50 for antimalarial activity against synchronous ring stage Plasmodium falciparum 3D7 infected in human Erythrocyte assessed as inhibition of parasite growth incubated for 96 hrs; assay type: toxicity, cell-based; details: read-out: Ratio IC50

O=S(=O)(c1nnc(N2CCC(c3ccccc3)CC2)o1)C1CCCCC1
IC50 [1]: > 100 µM
IC50 [2]: 13.5 µM
Ratio IC50 [3]: >7

CCOC(=O)C1CCCN(c2nnc(S(=O)(=O)C3CCCCC3)o2)C1 (racemic)
IC50 [1]: > 25 µM
IC50 [2]: 0.93 µM
Ratio IC50 [3]: >27
IC50 at 72 h [4]: > 100 µM
selectivity ratio at 96 h [5]: > 111

O=S(=O)(c1nnc(N2CCC3(CC2)OCCO3)o1)C1CCCCC1
IC50 [1]: > 50 µM
IC50 [2]: 0.9 µM
Ratio IC50 [3]: >56
IC50 at 72 h [4]: > 100 µM
selectivity ratio at 96 h [5]: > 111

CC1CC(C)CN(c2nnc(S(=O)(=O)C3CCCCC3)o2)C1 (mixture of isomers)
IC50 [1]: > 12.5 µM
IC50 [2]: 0.03 µM
Ratio IC50 [3]: >403
IC50 at 72 h [4]: > 100 µM
selectivity ratio at 96 h [5]: > 4000

O=S(=O)(c1nnc(N2C3CCC2COC3)o1)C1CCCCC1
IC50 [1]: > 12.5 µM
IC50 [2]: 0.37 µM
Ratio IC50 [3]: >34
IC50 at 72 h [4]: > 100 µM
selectivity ratio at 96 h [5]: > 270

CN1CCN(c2nnc(S(=O)(=O)C3CCCCC3)o2)CC1
IC50 [1]: > 100 µM
IC50 [2]: 5.4 µM
Ratio IC50 [3]: >19

O=S(=O)(c1nnc(N2CCCOCC2)o1)C1CCCCC1
IC50 [1]: > 100 µM
IC50 [2]: 0.75 µM
Ratio IC50 [3]: >134
IC50 at 72 h [4]: > 100 µM
selectivity ratio at 96 h [5]: > 133

CC(C)(C)OC(=O)[C@@H]1CCCN1c1nnc(S(=O)(=O)C2CCCCC2)o1
IC50 [1]: > 25 µM
IC50 [2]: 2.65 µM
Ratio IC50 [3]: >9
IC50 at 72 h [4]: > 100 µM
selectivity ratio at 96 h [5]: > 38

O=S1(=O)CCN(c2nnc(S(=O)(=O)C3CCCCC3)o2)CC1
IC50 [1]: > 25 µM
IC50 [2]: 6.75 µM
Ratio IC50 [3]: >4

N#CC1CCN(c2nnc(S(=O)(=O)C3CCCCC3)o2)CC1
IC50 [1]: > 10 µM
IC50 [2]: 0.49 µM
Ratio IC50 [3]: >21
IC50 at 72 h [4]: > 100 µM
selectivity ratio at 96 h [5]: > 200

Cc1ccc(C)c(CSc2nnc(N3CCOCC3)o2)c1
IC50 [1]: > 50 µM
IC50 [2]: > 50 µM

CC1(C)CCN(c2nnc(S(=O)(=O)C3CCCCC3)o2)CC1
IC50 [1]: > 25 µM
IC50 [2]: 0.15 µM
Ratio IC50 [3]: >171
IC50 at 72 h [4]: > 100 µM
selectivity ratio at 96 h [5]: > 1080

O=S(=O)(CC1(C(F)(F)F)CC1)c1nnc(N2CCOCC2)o1
IC50 [1]: > 12.5 µM
IC50 [2]: 3.19 µM
Ratio IC50 [3]: >4

O=S(=O)(c1nnc(N2CCOCC2)o1)C1CC2CCC1C2 (racemic)
IC50 [1]: > 10 µM
IC50 [2]: 0.28 µM
Ratio IC50 [3]: >36
IC50 at 72 h [4]: > 100 µM
selectivity ratio at 96 h [5]: > 377

CC1CCCCN1c1nnc(S(=O)(=O)C2CCCCC2)o1 (racemic)
IC50 [1]: > 12.5 µM
IC50 [2]: 0.31 µM
Ratio IC50 [3]: >40
IC50 at 72 h [4]: > 100 µM
selectivity ratio at 96 h [5]: > 277

O=S(=O)(c1nnc(N2CCCCO2)o1)C1CCCCC1
IC50 [1]: 8.24 µM
IC50 [2]: 18.4 µM
Ratio IC50 [3]: 0.4

O=S(=O)(c1nnc(N2CCOCC2)o1)C1CCCC1
IC50 [1]: > 50 µM
IC50 [2]: 5.82 µM
Ratio IC50 [3]: >9

CC1(C)CCCN(c2nnc(S(=O)(=O)C3CCCCC3)o2)C1
IC50 [1]: 21.1 µM
IC50 [2]: 0.04 µM
Ratio IC50 [3]: 527
IC50 at 72 h [4]: > 100 µM
selectivity ratio at 96 h [5]: > 2500

CC1CCN(c2nnc(S(=O)(=O)C3CCCCC3)o2)CC1
IC50 [1]: 39.3 µM
IC50 [2]: 0.22 µM
Ratio IC50 [3]: 182
IC50 at 72 h [4]: > 50 µM
selectivity ratio at 96 h [5]: > 227

O=S(=O)(c1nnc(N2CCN(CC(F)(F)F)CC2)o1)C1CCCCC1
IC50 [1]: > 25 µM
IC50 [2]: 2.35 µM
Ratio IC50 [3]: >11

O=S(=O)(c1nnc(N2CCC(F)(F)CC2)o1)C1CCCCC1
IC50 [1]: > 12.5 µM
IC50 [2]: 0.72 µM
Ratio IC50 [3]: >17
IC50 at 72 h [4]: > 100 µM
selectivity ratio at 96 h [5]: > 127

CC(=O)N1CCN(c2nnc(S(=O)(=O)C3CCCCC3)o2)CC1
IC50 [1]: > 50 µM
IC50 [2]: 1.46 µM
Ratio IC50 [3]: >34
IC50 at 72 h [4]: > 100 µM
selectivity ratio at 96 h [5]: > 69

O=S(=O)(c1nnc(N2CCC(C(F)(F)F)CC2)o1)C1CCCCC1
IC50 [1]: 22.1 µM
IC50 [2]: 0.37 µM
Ratio IC50 [3]: 61
IC50 at 72 h [4]: > 100 µM
selectivity ratio at 96 h [5]: > 270

CC(C)(C)OC(=O)N1CCN(c2nnc(S(=O)(=O)C3CCCCC3)o2)CC1
IC50 [1]: > 50 µM
IC50 [2]: 2.73 µM
Ratio IC50 [3]: >18

Cl.O=S(=O)(c1nnc(N2CCOCC2)o1)C1CCNCC1
IC50 [1]: > 50 µM
IC50 [2]: > 50 µM
Ratio IC50 [3]: 1

O=S(=O)(c1nnc(N2CCC3(CCCO3)CC2)o1)C1CCCCC1
IC50 [1]: > 50 µM
IC50 [2]: 0.77 µM
Ratio IC50 [3]: >65
IC50 at 72 h [4]: > 100 µM
selectivity ratio at 96 h [5]: > 135
